Key:
Assay type in all cases: cell-based
[1] = system: osteosarcoma cell U2OS; test: Fluorescence microscopy with DAHMI sensor: entry of the tetraboronic acid compound into the cell nucleus; details: osteosarcoma cells, compound acting 24 hours, 1.0 mM DAHMI at 37° C. for 20 minutes, nuclei stained with TOTO-3
Description: (§1) The tetraboronic acid compound prepared by the preparation method is subjected to a biological experimental test for further discussing the application of the tetraboronic acid compound as a potential drug of the BNCT. Since the BNCT is mainly used for a head and neck cancer, the experiments are performed using osteosarcoma cell U2OS as a material.
(§2) By utilizing the characteristics that a fluorescence sensor (DAHMI) is stably bonded to boric acid, and a complex compound thereof can emit blue fluorescence, whether the tetraboronic acid compound enters cells or not is observed. The tetraboronic acid compound is firstly added to the osteosarcoma cells to act for 24 hours. Next, after the tetraboronic acid compound is washed away, the fluorescence sensor DAHMI is added and soaked for 20 minutes, and the cells are cleaned with phosphate buffered saline (PBS). Finally, the cell nuclei are stained with a TOTO™-3 dye or the mitochondria are stained with a Mito tracker Green FM dye, and the cells are observed under a fluorescence microscope (Model: Leica DM2500 & DM2500 LED Optical microscopes), and the results are shown in FIG. 2.
Referring to FIG. 2, FIG. 2 is a cell fluorescence micrograph of a tetraboronic acid compound entering osteosarcoma cells according to one embodiment of the present invention. […]

[2] = system: osteosarcoma cell U2OS; test: Flow cytometry of DAHMI fluorescence content (boron compound content in cells); details: for Fluorescence content relative to the clinical drug boronophenylalanine: 2.0 mM, ratio to BPA; for Fluorescence content: boron compound 2.0 mM, DAHMI sensor, flow cytometer
Description: as §1
The content of the boron atoms in the osteosarcoma cells is further analyzed, and the fluorescence sensor DAHMI in the cells is excited by a flow cytometer (Model: Thermo Fisher Scientific Attune™ NxT Flow Cytometer) to detect the fluorescence content, thereby analyzing the content of the boron compound bonded to the fluorescence sensor DAHMI. After the osteosarcoma cells are treated with the clinical drug boronophenylalanine (BPA), B3 and B9 respectively, the fluorescence content is detected by the flow cytometer.

[3] = system: osteosarcoma cell U2OS; test: Fluorescence microscopy with DAHMI sensor: accumulation in mitochondria versus BPA; details: osteosarcoma cells, mitochondria stained with Mito tracker Green FM
Description: as §1, §2
Referring to FIG. 3, FIG. 3 is a cell fluorescence micrograph of a tetraboronic acid compound and a clinical drug boronophenylalanine (BPA) according to one embodiment of the present invention.

Structure (SMILES)	Entry into the cell nucleus (blue DAHMI fluorescence brightness, FIG. 2) [1]	Fluorescence content relative to the clinical drug boronophenylalanine [2] [times]	Fluorescence content [2] [A.u.]	Accumulation in the mitochondria (DAHMI fluorescence brightness level compared with BPA, FIG. 3) [3]
O=C(NCc1ccc(B(O)O)cc1)C(c1cccc(B(O)O)c1)N(C(=O)c1ccc(B(O)O)cc1)c1ccc(B(O)O)cc1 (centres unmarked) [Example B3]	enter the cell nucleus more easily than other compounds	1.95	4831	more capable of accumulating in the mitochondria than clinical BPA
O=C(NCc1ccc(B(O)O)cc1F)C(c1cc(B(O)O)ccc1F)N(C(=O)c1ccc(B(O)O)cc1F)c1ccc(B(O)O)cc1 (centres unmarked) [Example B9]	enter the cell nucleus more easily than other compounds	1.44	3568	more capable of accumulating in the mitochondria than clinical BPA

Source: patent US10689404B1, “Preparation method of tetraboronic acid compounds, and tetraboronic acid compounds” (Tamkang University, priority 2019, dated 2020)
